From ChEMBL document CHEMBL5442219

Key:
Settings in all cases: Compound concentration 10 µM
[1] = molecular target: T1, Alpha-1D adrenergic receptor (Homo sapiens) (UniProt P25100)
T1 sequence (whole entry): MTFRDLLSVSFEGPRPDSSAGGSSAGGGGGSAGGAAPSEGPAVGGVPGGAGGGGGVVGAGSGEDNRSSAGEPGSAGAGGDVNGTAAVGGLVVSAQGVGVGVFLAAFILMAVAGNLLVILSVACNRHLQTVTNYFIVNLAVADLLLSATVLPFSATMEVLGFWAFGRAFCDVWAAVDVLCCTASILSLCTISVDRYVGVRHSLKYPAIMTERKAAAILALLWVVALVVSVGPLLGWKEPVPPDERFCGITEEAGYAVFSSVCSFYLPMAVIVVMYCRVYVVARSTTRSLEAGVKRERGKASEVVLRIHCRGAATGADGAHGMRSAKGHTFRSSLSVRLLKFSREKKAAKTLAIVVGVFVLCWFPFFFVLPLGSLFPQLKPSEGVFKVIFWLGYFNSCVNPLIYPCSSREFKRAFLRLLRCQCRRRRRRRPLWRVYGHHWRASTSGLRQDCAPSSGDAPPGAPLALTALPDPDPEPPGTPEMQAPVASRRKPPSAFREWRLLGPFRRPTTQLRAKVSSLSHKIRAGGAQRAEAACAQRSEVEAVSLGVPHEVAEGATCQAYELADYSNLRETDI

[2] = molecular target: T2, Alpha-2B adrenergic receptor (Homo sapiens) (UniProt P18089)
T2 sequence (whole entry): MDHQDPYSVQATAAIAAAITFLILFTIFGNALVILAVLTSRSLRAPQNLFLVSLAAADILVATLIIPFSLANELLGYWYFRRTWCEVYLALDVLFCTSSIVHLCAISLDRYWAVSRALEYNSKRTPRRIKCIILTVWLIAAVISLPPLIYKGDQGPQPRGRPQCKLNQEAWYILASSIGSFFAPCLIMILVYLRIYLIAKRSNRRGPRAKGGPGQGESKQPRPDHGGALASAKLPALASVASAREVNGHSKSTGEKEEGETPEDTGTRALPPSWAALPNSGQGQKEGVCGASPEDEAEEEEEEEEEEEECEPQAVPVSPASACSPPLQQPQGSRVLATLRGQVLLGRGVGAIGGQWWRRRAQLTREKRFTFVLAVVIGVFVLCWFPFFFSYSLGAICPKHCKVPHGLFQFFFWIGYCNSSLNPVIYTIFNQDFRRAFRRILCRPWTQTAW

[3] = molecular target: D(2) dopamine receptor (Homo sapiens) (UniProt P14416)
[4] = molecular target: D(3) dopamine receptor (Homo sapiens) (UniProt P35462)
[5] = molecular target: D(1B) dopamine receptor (Homo sapiens) (UniProt P21918)
[6] = molecular target: Histamine H1 receptor (Homo sapiens) (UniProt P35367)
[7] = molecular target: Histamine H4 receptor (Homo sapiens) (UniProt Q9H3N8)
[8] = molecular target: T3, 5-hydroxytryptamine receptor 1A (Homo sapiens) (UniProt P08908)
T3 sequence (whole entry): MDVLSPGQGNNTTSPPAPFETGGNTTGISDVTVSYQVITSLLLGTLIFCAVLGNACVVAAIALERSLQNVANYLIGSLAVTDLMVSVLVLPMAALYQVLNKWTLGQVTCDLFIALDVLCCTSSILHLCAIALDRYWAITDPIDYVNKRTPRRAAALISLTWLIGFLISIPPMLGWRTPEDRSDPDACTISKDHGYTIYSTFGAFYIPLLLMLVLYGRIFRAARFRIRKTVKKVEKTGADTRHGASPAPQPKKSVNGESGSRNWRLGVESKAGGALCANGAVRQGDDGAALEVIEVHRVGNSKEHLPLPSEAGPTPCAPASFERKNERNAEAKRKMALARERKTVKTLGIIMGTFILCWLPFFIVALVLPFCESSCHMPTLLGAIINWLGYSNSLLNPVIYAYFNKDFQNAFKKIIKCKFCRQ

[9] = molecular target: 5-hydroxytryptamine receptor 1B (Homo sapiens) (UniProt P28222)
[10] = molecular target: 5-hydroxytryptamine receptor 1D (Homo sapiens) (UniProt P28221)
[11] = molecular target: 5-hydroxytryptamine receptor 1E (Homo sapiens) (UniProt P28566)
[12] = molecular target: 5-hydroxytryptamine receptor 2B (Homo sapiens) (UniProt P41595)
[13] = molecular target: 5-hydroxytryptamine receptor 5A (Homo sapiens) (UniProt P47898)
[14] = molecular target: 5-hydroxytryptamine receptor 6 (Homo sapiens) (UniProt P50406)
[15] = molecular target: Delta-type opioid receptor (Homo sapiens) (UniProt P41143)
[16] = molecular target: Sigma non-opioid intracellular receptor 1 (Homo sapiens) (UniProt Q99720)
[17] = molecular target: Sodium-dependent noradrenaline transporter (Homo sapiens) (UniProt P23975)
[18] = molecular target: Sodium-dependent dopamine transporter (Homo sapiens) (UniProt Q01959)
[19] = molecular target: Beta-3 adrenergic receptor (Homo sapiens) (UniProt P13945)
[20] = molecular target: Histamine H2 receptor (Homo sapiens) (UniProt P25021)
[21] = molecular target: T4, 5-hydroxytryptamine receptor 2C (Homo sapiens) (UniProt P28335)
T4 sequence (whole entry): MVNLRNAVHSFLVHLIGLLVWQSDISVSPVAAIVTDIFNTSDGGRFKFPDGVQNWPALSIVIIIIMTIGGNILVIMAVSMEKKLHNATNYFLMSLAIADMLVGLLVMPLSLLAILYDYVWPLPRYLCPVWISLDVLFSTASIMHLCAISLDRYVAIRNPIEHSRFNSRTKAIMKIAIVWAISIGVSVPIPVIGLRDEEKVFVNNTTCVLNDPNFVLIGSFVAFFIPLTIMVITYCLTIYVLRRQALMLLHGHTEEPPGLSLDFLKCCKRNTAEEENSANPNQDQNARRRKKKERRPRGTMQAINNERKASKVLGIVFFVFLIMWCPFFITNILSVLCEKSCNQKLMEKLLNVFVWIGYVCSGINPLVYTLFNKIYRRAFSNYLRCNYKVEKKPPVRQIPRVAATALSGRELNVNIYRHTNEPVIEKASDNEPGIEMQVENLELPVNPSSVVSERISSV

Chain of Sodium-dependent dopamine transporter (Homo sapiens) (Q01959 whole entry): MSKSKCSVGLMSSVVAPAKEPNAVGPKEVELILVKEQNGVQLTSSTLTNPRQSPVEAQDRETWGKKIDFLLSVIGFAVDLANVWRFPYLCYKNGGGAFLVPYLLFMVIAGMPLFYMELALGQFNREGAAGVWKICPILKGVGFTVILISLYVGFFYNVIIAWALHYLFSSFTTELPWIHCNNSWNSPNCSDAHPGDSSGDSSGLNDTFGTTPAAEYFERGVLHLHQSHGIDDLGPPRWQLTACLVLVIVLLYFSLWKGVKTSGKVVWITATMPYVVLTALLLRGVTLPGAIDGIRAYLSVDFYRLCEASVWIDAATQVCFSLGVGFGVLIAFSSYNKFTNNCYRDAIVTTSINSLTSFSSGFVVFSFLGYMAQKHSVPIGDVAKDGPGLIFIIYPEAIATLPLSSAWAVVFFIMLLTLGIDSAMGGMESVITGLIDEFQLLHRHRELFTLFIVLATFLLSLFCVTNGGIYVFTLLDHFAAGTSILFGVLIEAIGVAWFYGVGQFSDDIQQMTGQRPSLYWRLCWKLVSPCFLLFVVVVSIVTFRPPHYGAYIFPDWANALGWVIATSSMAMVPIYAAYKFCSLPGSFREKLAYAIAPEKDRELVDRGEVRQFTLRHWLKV
Chain of 5-hydroxytryptamine receptor 5A (Homo sapiens) (P47898 whole entry): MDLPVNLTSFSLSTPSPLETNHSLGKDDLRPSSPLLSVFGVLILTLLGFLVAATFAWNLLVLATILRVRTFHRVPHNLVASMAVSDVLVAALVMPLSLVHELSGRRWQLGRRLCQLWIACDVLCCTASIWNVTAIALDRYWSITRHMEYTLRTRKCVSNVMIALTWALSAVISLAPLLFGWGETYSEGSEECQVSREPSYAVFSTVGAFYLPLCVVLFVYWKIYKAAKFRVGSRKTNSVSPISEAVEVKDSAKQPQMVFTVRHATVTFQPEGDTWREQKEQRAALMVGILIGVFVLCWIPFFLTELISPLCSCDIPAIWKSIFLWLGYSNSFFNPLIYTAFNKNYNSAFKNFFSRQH
Chain of D(2) dopamine receptor (Homo sapiens) (P14416 whole entry): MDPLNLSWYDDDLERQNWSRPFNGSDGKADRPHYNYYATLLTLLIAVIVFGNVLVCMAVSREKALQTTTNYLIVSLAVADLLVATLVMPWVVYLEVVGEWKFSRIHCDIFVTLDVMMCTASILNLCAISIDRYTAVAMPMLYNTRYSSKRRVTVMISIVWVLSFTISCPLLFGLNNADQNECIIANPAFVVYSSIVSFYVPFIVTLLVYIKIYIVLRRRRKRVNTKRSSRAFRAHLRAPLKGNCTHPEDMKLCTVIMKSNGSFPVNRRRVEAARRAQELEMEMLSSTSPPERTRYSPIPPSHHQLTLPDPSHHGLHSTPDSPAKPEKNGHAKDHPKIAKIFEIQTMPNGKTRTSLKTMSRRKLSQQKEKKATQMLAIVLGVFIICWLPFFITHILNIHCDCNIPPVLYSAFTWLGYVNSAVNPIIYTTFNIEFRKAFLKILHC
Chain of D(3) dopamine receptor (Homo sapiens) (P35462 whole entry): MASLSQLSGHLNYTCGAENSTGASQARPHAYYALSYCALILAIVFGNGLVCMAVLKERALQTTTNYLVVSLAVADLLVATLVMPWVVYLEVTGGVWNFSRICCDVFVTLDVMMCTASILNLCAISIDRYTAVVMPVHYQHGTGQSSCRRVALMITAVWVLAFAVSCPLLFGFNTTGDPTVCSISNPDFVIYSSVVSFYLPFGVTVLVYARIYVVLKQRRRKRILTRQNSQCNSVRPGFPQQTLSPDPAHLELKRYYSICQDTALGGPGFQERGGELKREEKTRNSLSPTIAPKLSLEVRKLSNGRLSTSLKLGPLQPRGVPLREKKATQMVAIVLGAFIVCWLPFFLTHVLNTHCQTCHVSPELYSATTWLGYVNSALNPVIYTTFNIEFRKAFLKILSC
Chain of Beta-3 adrenergic receptor (Homo sapiens) (P13945 whole entry, looked up): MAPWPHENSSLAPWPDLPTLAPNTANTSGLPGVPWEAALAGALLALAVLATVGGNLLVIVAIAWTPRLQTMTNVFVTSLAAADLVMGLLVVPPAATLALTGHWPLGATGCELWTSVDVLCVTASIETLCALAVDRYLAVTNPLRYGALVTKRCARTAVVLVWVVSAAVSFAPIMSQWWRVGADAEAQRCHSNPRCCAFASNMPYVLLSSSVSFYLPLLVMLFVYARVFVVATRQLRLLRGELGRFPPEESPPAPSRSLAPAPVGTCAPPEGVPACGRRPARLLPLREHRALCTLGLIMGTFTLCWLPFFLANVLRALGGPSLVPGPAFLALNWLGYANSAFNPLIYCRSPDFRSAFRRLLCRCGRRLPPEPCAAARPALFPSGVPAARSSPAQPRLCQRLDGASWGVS
Chain of 5-hydroxytryptamine receptor 6 (Homo sapiens) (P50406 whole entry): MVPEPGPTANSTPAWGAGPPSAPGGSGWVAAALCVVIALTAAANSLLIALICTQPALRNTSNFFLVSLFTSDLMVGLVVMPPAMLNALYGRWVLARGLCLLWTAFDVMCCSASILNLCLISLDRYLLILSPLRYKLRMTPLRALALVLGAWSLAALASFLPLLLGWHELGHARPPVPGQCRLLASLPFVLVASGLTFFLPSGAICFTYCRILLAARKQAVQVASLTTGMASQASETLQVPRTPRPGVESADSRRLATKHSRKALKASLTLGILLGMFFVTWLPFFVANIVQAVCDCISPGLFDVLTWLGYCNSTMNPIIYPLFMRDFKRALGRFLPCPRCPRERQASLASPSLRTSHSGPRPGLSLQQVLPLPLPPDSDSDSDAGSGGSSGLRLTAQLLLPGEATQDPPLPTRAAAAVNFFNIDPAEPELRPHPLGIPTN
Chain of 5-hydroxytryptamine receptor 1D (Homo sapiens) (P28221 whole entry): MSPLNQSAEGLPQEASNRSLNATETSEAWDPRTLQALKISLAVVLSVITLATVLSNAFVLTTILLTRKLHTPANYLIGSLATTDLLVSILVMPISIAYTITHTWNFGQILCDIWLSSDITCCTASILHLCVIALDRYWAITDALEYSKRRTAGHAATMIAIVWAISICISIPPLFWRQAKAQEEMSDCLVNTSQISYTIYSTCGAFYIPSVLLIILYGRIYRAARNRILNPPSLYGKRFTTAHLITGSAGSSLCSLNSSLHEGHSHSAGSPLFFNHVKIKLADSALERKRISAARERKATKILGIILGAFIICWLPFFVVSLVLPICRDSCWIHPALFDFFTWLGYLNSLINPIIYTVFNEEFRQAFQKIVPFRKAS
Chain of Histamine H1 receptor (Homo sapiens) (P35367 whole entry): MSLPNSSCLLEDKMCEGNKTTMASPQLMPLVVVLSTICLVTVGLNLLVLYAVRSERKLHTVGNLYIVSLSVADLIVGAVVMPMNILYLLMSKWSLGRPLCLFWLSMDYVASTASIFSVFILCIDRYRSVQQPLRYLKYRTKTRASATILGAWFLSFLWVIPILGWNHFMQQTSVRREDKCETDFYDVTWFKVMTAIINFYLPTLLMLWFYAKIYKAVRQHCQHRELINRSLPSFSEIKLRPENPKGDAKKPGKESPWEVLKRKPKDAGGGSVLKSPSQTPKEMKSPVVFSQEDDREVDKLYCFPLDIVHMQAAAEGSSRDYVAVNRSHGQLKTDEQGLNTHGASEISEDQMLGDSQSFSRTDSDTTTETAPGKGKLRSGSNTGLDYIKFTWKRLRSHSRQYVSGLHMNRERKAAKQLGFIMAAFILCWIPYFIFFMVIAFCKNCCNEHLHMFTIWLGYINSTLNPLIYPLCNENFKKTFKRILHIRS
Chain of 5-hydroxytryptamine receptor 2B (Homo sapiens) (P41595 whole entry): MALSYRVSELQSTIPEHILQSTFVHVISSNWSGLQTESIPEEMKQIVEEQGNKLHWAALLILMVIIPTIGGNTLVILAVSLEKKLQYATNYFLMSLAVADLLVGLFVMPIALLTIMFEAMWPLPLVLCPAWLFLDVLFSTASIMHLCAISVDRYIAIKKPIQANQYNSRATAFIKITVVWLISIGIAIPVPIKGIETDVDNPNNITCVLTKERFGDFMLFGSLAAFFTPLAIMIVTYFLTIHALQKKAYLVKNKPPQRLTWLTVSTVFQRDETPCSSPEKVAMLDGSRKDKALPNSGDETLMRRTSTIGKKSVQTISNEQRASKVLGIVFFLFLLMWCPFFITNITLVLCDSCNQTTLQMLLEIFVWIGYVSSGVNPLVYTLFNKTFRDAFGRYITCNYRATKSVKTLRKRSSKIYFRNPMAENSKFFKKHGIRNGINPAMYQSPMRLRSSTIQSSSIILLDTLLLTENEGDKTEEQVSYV
Chain of Histamine H4 receptor (Homo sapiens) (Q9H3N8 whole entry): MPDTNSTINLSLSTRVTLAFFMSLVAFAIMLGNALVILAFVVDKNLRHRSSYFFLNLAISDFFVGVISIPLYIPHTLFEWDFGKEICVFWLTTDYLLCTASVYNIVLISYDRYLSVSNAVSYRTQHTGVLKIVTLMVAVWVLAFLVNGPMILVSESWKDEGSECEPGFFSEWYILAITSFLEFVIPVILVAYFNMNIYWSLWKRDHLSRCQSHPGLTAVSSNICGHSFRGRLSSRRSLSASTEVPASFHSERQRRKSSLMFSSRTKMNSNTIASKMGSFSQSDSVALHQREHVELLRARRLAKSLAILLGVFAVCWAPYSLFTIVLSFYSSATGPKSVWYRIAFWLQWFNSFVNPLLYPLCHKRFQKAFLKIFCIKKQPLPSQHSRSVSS
Chain of Sigma non-opioid intracellular receptor 1 (Homo sapiens) (Q99720 whole entry): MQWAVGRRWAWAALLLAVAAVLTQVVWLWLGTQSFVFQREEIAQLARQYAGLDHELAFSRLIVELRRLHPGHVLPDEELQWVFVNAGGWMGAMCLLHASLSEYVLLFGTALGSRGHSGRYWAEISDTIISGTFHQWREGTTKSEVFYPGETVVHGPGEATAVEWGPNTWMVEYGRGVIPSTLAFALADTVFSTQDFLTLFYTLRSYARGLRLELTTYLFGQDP

SMILES | inhibition [1] | inhibition [2] | inhibition [3] | inhibition [4] | inhibition [5] | inhibition [6] | inhibition [7] | inhibition [8] | inhibition [10] | inhibition [11] | inhibition [12] | inhibition [13] | inhibition [14] | inhibition [15] | inhibition [16] | inhibition [17] | inhibition [18] | inhibition [19] | inhibition [20] | inhibition [21] | other results
Cc1nnn(-c2ccc(-c3ccc(C4(C(=O)O)CC4)cc3)cc2)c1NC(=O)O[C@H](C)c1ccccc1 | 23.9% | 4.78% | 25.4% | 34.8% | 43.6% | 52.8% | -4.07% | 2.96% | 16.8% | 1.32% | -0.33% | 15.6% | 37.4% | 7.05% | 20.9% | 2.8% | 35% | 24.9% | 4.74% | – | inhibition [9]: -3.56%
COc1ccnc(N2CCC3(CCCN(Cc4c[nH]c5ccccc45)C3=O)CC2)n1 | – | -7.28% | 7% | 28.5% | 20.4% | 23.1% | -2.57% | 72.4% | 13.2% | -3.29% | 23.6% | -9.26% | 19.4% | 41.8% | 16% | 16.6% | 44.7% | -5.97% | -7.83% | 0.97% | –
COC1CCN(c2cccc(-c3cc(NC(C)=O)nc(-n4nc(C)cc4C)n3)n2)CC1 | 17.4% | -0.88% | 12.8% | – | 3.58% | 14.4% | 5.32% | 23.3% | – | 15.2% | 30.3% | -1.72% | 40.8% | -6% | 80.2% | – | 49.2% | 22.6% | 26% | 3.48% | –
Cc1csc(NC(=O)c2cc(F)cc(Oc3cncnc3)c2)n1 | – | 6.73% | 21% | 72% | 46% | -6.12% | 0.79% | 20.4% | 5.84% | -3.74% | 26.7% | -6.54% | 7.85% | -0.43% | 37.2% | 10.9% | 56.1% | – | 28.4% | 0.59% | inhibition [9]: -4.65%
Cc1c(C2=CCN(C(=O)N(C)C(C)C)CC2)nnn1-c1cccnc1F | – | 21.3% | 11.9% | -1.95% | – | 60.9% | 9.6% | 17% | – | 20.2% | 6.62% | 7.43% | 1.27% | – | 48.4% | – | – | 14.8% | 29.8% | -0.1% | –
